# In patent US11066668B2, “Compositions and methods for modulation of IKBKAP splicing” (Ionis Pharmaceuticals, Inc., priority 2012, dated 2021):
# “Also recorded” adds a separate entry of the source. Oligonucleotides are written 5' to 3', each unit as a sugar letter and its base; * is a phosphorothioate linkage, no mark a phosphodiester; rarer units and linkages stand in square brackets, end groups in braces. Plain capitals give the bases only. e = 2'-O-(2-methoxyethyl) (MOE); [5mC] = 5-methylcytosine
# Columns and labels:
# [1] = system: IKBKAP mRNA in GM04899 fibroblasts; test: Exon 20 inclusion in FD patient skin fibroblast line GM04899 (RT-PCR); assay type: cell-based, human; conditions: for % inclusion of exon 20: Lipofectamine 2000, two days, relative to IMR90 cells (100%)
# Method: To investigate the effect of ISIS 421992 on patient-derived fibroblasts, the patient skin fibroblast line GM04899 (Coriell Cell Repository) was utilized. The cell line was derived from an individual homozygous for the major FD mutation.
# GM04899 was cultured in minimal essential medium (Invitrogen) supplemented with non-essential amino acids (Invitrogen) and 20% (v/v) fetal bovine serum. The cells were grown to 40-50% confluence in 10-cm dishes. Cells were transfected with 2 nM, 5 nM, 25 nM, or 125 nM concentrations of ISIS 421992 using 12 μL Lipofectamine 2000 transfection reagent (Invitrogen). Two days later, cDNA synthesized from total RNA extracted from HEK-293 cells was amplified using the forward primer pCDNAF and reverse primer sequence IKAP21R4 to assay the splicing pattern of expressed RNAs by RT-PCR. To calculate exon 20 inclusion levels, the PCR amplicons were labeled with α^32P-dCTP. The PCR products were then separated by native PAGE, followed by phosphorimage analysis. The band intensities were quantified and values were normalized for the G+C content according to the DNA sequence. Multiple lanes for each condition represent independent experiments.
# A batch of cells was treated with solvent (NaOH) only of the kinetin solution as a control. RNA from IMR90, a wild-type normal diploid lung fibroblast cell line was used as positive control. The results are expressed as percent inclusion of exon 20 compared to the exon 20 inclusion (100%) of IKBKAP mRNA in IMR90 cells.
# [2] = system: human IKBKAP mRNA; test: Exon 20 inclusion in neonatal transgenic mice after single ICV or subcutaneous injection; assay type: in vivo, mouse; conditions: neonatal Tg mice
# Method: To investigate the effect of ISIS 421992 in an animal model, transgenic mice that carry the entire human IKBKAP gene with the major FD mutation, in addition to being homozygous wild type at the mouse Ikbkap locus, were obtained from an NIH core facility.
# Neonatal transgenic mice were also treated with ISIS 421992 administered as a single ICV injection dose of 2.5 μg, 5 μg, 10 μg, 20 μg, or 30 μg. A group of neonatal mice were treated with ISIS 421992 administered subcutaneously using a 10 μL micro syringe (Hamilton) and a 33-gauge needle. In all cases, the injections were administered at P1 and the RNA was assayed at P8. The RNA splicing patterns in the various tissues after administering ISIS 421992 in neonate mice were then observed. Multiple lanes for each condition represent independent experiments.
substance,measurement,setting,value
"ISIS 421992: uniform 2′-MOE 20-mer, phosphate backbone; GTCGCAAACAGTACAATGGC, SEQ ID NO 61, intron 20 (eGeTe[5mC]eGe[5mC]eAeAeAe[5mC]eAeGeTeAe[5mC]eAeAeTeGeGe[5mC])",% inclusion of exon 20,"[1]; GM04899, 2 nM",79%
same,% inclusion of exon 20,"[1]; GM04899, 5 nM",95%
same,% inclusion of exon 20,"[1]; GM04899, 25 nM",96%
same,% inclusion of exon 20,"[1]; GM04899, 125 nM",97%
same,"effect on the splicing defect / full-length mRNA levels, in words",[1]; GM04899 fibroblasts,almost completely suppressed the splicing defect; also recorded: as effective as treatment with kinetin for 3 days in restoring full-length mRNA levels
same,"tissue pattern of full-length IKBKAP mRNA, in words",[2]; ICV administration,"increased full-length IKBKAP mRNA in the brain and spinal cord, with moderate effects in the peripheral tissues"
same,Percent inclusion of exon 20 in human IKBKAP mRNA,"[2]; ICV administration, Brain",50%
same,Percent inclusion of exon 20 in human IKBKAP mRNA,"[2]; ICV administration, Heart",40%
same,Percent inclusion of exon 20 in human IKBKAP mRNA,"[2]; ICV administration, Kidney",33%
same,Percent inclusion of exon 20 in human IKBKAP mRNA,"[2]; ICV administration, Liver",44%
same,Percent inclusion of exon 20 in human IKBKAP mRNA,"[2]; ICV administration, Muscle",33%
same,Percent inclusion of exon 20 in human IKBKAP mRNA,"[2]; ICV administration, Spinal Cord",47%
same,Percent inclusion of exon 20 in human IKBKAP mRNA,"[2]; s.c. injection, Brain",18%
same,Percent inclusion of exon 20 in human IKBKAP mRNA,"[2]; s.c. injection, Heart",58%
same,Percent inclusion of exon 20 in human IKBKAP mRNA,"[2]; s.c. injection, Kidney",36%
same,Percent inclusion of exon 20 in human IKBKAP mRNA,"[2]; s.c. injection, Liver",72%
same,Percent inclusion of exon 20 in human IKBKAP mRNA,"[2]; s.c. injection, Muscle",60%
same,Percent inclusion of exon 20 in human IKBKAP mRNA,"[2]; s.c. injection, Spinal Cord",19%
same,Percent inclusion of exon 20 in human IKBKAP mRNA,"[2]; single ICV injection 2.5 μg at P1, RNA at P8",13%
same,Percent inclusion of exon 20 in human IKBKAP mRNA,"[2]; single ICV injection 5 μg at P1, RNA at P8",18%
same,Percent inclusion of exon 20 in human IKBKAP mRNA,"[2]; single ICV injection 10 μg at P1, RNA at P8",34%
same,Percent inclusion of exon 20 in human IKBKAP mRNA,"[2]; single ICV injection 20 μg at P1, RNA at P8",36%
same,Percent inclusion of exon 20 in human IKBKAP mRNA,"[2]; single ICV injection 30 μg at P1, RNA at P8",48%
same,"tissue pattern of full-length IKBKAP mRNA, in words",[2]; subcutaneous administration,"primarily affected expression in the liver, skeletal muscle, and heart with moderate effects in the CNS"
